Converted amounts (≈) assume the structure as drawn. Read-outs that look alike come from different tables or passages of the source. Numbered stars: 1 amine (or outer) side, 2 acyl side, 3 side chain; on linkers, the order of the positions; unused ones are H or OH. Bridge positions count the residues as written; N and C are the ends. Square brackets hold non-standard residues; d marks the D form. Peptide text beside a SMILES is read from it. X1 = CC(C)CCCCCCCCC[C@H](CC(=O)[*:1])O[*:2]
Tests used:
TNBS-induced colitis = TNBS-induced colitis in rats; assay type: in vivo, Wistar rats; conditions: for number of animals affected by diarrhea / number of observations of diarrhea recorded: day 1 to 7
Excerpt: Two consecutive trials were done. Male Wistar rats were obtained from the National Centre for Laboratory Animal Sciences (Hyderabad, India) (trial 1) or from the Department of Animal Medicine, […], India) (trial 2). […] Upon their arrival at the test facility, the animals were given a complete clinical examination under the supervision of a veterinarian to ensure that they were in good condition. The animals were acclimatized to the study conditions for a period of at least 7 days. Per trial, animals were randomised and allocated to one of the study groups. […] All animals had free access (except for the overnight fasting prior to TNBS administration) to rat pellet feed from the National Institute of Nutrition (NIN, Hyderabad, India) and Aquaguard purified water ad libitum. In both trials the day of induction of colitis was set as day 1. […] The colitis-negative control groups were given saline intrarectally (0.5 ml per animal once) on day 1. […] Except for infliximab, which was injected intravenously^59, all treatments were administered by gavage. Twice daily observations were made for clinical signs and mortality. […] These segments were opened longitudinally. […] Mesalazine (Mesacol®, Sun Pharmaceutical Ind. Ltd, Mumbai, India) tablets were powdered using pestle and mortar and a solution in distilled water was prepared containing 25 mg 5-aminosalicylic acid per ml. […] Remicade® (Infliximab) (Centocor B. V., Leiden, The Netherlands) was first reconstituted with 10 ml water for injection and was further diluted to 2 mg/ml concentration using saline. […] All body weight dependant doses were administered on the basis of the last individual body weight taken. Fresh preparations were made prior to each administration. The preparations were stirred vigorously before each dosing.

C. perfringens ATCC13124 = experiment: microbe, parasite or virus in culture; assay type: cell-based; conditions: Clostridium perfringens, ATCC13124, 18 h
Clostridium perfringens = experiment: microbe, parasite or virus in culture; assay type: cell-based
cytosolic PLA2 = molecular target: T1, cytosolic PLA2 (Homo sapiens, UniProt P47712); conditions: known from literature; cited from earlier work
T1 sequence (P47712 1-749): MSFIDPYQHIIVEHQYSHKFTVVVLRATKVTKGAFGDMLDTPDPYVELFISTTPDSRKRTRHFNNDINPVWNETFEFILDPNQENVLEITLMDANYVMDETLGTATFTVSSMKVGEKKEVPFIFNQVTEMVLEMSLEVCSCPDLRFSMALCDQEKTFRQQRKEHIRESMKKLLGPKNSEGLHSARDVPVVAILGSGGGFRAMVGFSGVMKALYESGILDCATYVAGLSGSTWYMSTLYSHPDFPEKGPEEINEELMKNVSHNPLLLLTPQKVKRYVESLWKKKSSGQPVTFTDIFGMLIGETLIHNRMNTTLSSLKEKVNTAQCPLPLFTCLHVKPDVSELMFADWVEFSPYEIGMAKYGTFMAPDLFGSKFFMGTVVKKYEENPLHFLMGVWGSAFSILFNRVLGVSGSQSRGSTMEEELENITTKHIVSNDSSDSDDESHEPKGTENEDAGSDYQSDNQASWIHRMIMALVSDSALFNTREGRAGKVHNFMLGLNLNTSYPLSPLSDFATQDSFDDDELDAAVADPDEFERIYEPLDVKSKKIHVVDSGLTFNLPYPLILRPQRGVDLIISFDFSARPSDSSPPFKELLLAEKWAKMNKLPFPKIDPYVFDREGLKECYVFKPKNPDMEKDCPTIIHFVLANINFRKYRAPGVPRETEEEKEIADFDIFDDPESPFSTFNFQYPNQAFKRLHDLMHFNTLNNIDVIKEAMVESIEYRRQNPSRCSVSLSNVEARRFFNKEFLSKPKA

[1] = Immune response (phagocytosis) in male broilers; assay type: in vivo; conditions: 100 mg/kg zinc bacitracin
[2] = tested on: Clostridium difficile ATCC 9689; experiment: Clindamycin-induced CDAD hamster model; assay type: in vivo, Golden Syrian hamsters; conditions: for diarrhea score / Number of animals with diarrhea: vancomycin 50 mg/Kg oral once daily days 2-6; for Number of animals tested positive for C difficile toxins A or B in faeces: vancomycin
[3] = Trial 1, Day 1 (baseline), mesalazine 250 mg/Kg/day, infliximab 3 mg/Kg single i.v. dose
[4] = Trial 1, Day 1 to 7, mesalazine 250 mg/Kg/day, infliximab 3 mg/Kg single i.v. dose
[5] = Trial 1, Day 4, mesalazine 250 mg/Kg/day, infliximab 3 mg/Kg single i.v. dose
[6] = Trial 1, Day 7, mesalazine 250 mg/Kg/day, infliximab 3 mg/Kg single i.v. dose
[7] = Trial 1, scale 0-5, mesalazine 250 mg/Kg/day, infliximab 3 mg/Kg single i.v. dose
[8] = Trial 1, mesalazine 250 mg/Kg/day, infliximab 3 mg/Kg single i.v. dose
[9] = Trial 2, Day 1 (baseline), PB6 and S. boulardii 1.5 10^8 CFU/Kg 3 times daily, mesalazine 250 mg/Kg/day, infliximab 3 mg/Kg single dose
[10] = Trial 2, Day 1 to 7, doses as for Day 1
[11] = Trial 2, Day 4, doses as for Day 1
[12] = Trial 2, Day 7, doses as for Day 1
[13] = Trial 2, scale 0-5, PB6 and S. boulardii 1.5 10^8 CFU/Kg 3 times daily, mesalazine 250 mg/Kg/day, infliximab 3 mg/Kg single dose
[14] = Trial 2, PB6 and S. boulardii 1.5 10^8 CFU/Kg 3 times daily, mesalazine 250 mg/Kg/day, infliximab 3 mg/Kg single dose
[15] = first trial, mesalazine 250 mg/Kg/day, infliximab 3 mg/Kg single dose
[16] = second trial, PB6 and S. boulardii 3×1.5 10^8 CFU/Kg/day, mesalazine 250 mg/Kg/day, infliximab 3 mg/Kg single dose
[17] = trial 1, one individual rat, infliximab 3 mg/Kg

| Molecule | Av. Body weight (TNBS-induced colitis; [3]) [g] | Av. Body weight gain (%) (TNBS-induced colitis; [4]) | Av. Body weight (TNBS-induced colitis; [5]) [g] | Av. Body weight (TNBS-induced colitis; [6]) [g] | Gross morphology score (TNBS-induced colitis; [7]) | Wet weight (g) of a 5 cm colon segment (TNBS-induced colitis; [8]) | Av. Body weight (TNBS-induced colitis; [9]) [g] | Av. Body weight gain (%) (TNBS-induced colitis; [10]) | Av. Body weight (TNBS-induced colitis; [11]) [g] | Av. Body weight (TNBS-induced colitis; [12]) [g] | Gross morphology score (TNBS-induced colitis; [13]) | Wet weight (g) of a 5 cm colon segment (TNBS-induced colitis; [14]) [g] | number of observations of diarrhea recorded (TNBS-induced colitis; [15]) | number of animals affected by diarrhea (TNBS-induced colitis; [16]) | number of observations of diarrhea recorded (TNBS-induced colitis; [16]) | further results |
| --- | --- | --- | --- | --- | --- | --- | --- | --- | --- | --- | --- | --- | --- | --- | --- | --- |
| Infliximab: Remicade® (Infliximab), Centocor, standard drug | 180 ± 14 | 1.3 ± 5.4 | 183 ± 7 | 186 ± 6 | 3.0 ± 1.4 | 1.055 ± 0.490‘ g | 208 ± 15 | −5.2 ± 3.4 | 197 ± 14 | 197 ± 13 | 2.0 ± 0.7 | 0.657 ± 0.076 | 8 | 2 | 24 | number of animals affected by diarrhea (TNBS-induced colitis; first trial, infliximab 3 mg/Kg single dose): 1; colon segment weight of one rat (TNBS-induced colitis; [17]): 0.402 g; gross morphology score of one rat (TNBS-induced colitis; [17]): 1 |
| CC(C)CCCCCCCCC[C@@H]1CC(=O)N[C@@H](CCC(=O)O)C(=O)N[C@@H](CC(C)C)C(=O)N[C@H](CC(C)C)C(=O)N[C@@H](C(C)C)C(=O)N[C@@H](CC(=O)O)C(=O)N[C@H](CC(C)C)C(=O)N[C@@H](CC(C)C)C(=O)O1 [surfactin] (EL[dL]VD[dL]L; linker N-C via X1) |  |  |  |  |  |  |  |  |  |  |  |  |  |  |  | MIC (C. perfringens ATCC13124): 10 to 25 µg/mL (≈ 9.65 to 24.1 µM); MIC (Clostridium perfringens; read-out: MIC (C. perfringens), 30′ 0.1 N HCl, 37° C.): 10 to 25 µg/mL (≈ 9.65 to 24.1 µM); MIC (Clostridium perfringens; read-out: MIC (C. perfringens), 60′ 0.1 N HCl, 37° C.): 25 to 50 µg/mL (≈ 24.1 to 48.2 µM); MIC (Clostridium perfringens; read-out: MIC (C. perfringens), 90′ 0.1 N HCl, 37° C.): 25 to 50 µg/mL (≈ 24.1 to 48.2 µM); MIC (Clostridium perfringens; read-out: MIC (C. perfringens), No HCL): 1 to 10 µg/mL (≈ 0.965 to 9.65 µM); inhibition of the activity of cytosolic PLA2 (cytosolic PLA2): inhibits |
| Nc1ccc(O)c(C(=O)O)c1 [Mesalazine, 5-aminosalicylic acid] | 181 ± 11 | 8.8 ± 1.4 | 187 ± 10 | 196 ± 10 | 0.8 ± 0.4 | 0.435 ± 0.052 g | 207 ± 12 | −3.3 ± 5.5 | 199 ± 18 | 201 ± 20 | 1.2 ± 0.8 | 0.445 ± 0.145 | 0 | 1 | 12 |  |
| zinc bacitracin |  |  |  |  |  |  |  |  |  |  |  |  |  |  |  | Phagocytosis [1]: 6.23 |
| CN[C@H](CC(C)C)C(=O)N[C@H]1C(=O)N[C@@H](CC(N)=O)C(=O)N[C@H]2C(=O)N[C@H]3C(=O)N[C@H](C(=O)N[C@H](C(=O)O)c4cc(O)cc(O)c4-c4cc3ccc4O)[C@H](O)c3ccc(c(Cl)c3)Oc3cc2cc(c3O[C@@H]2O[C@H](CO)[C@@H](O)[C@H](O)[C@H]2O[C@H]2C[C@](C)(N)[C@H](O)[C@H](C)O2)Oc2ccc(cc2Cl)[C@H]1O [Vancomycin, vancomycin] |  |  |  |  |  |  |  |  |  |  |  |  |  |  |  | Average body weight ([2]; Day 0 (baseline), CDAD induced, vancomycin 50 mg/Kg): 218.0 ± 4.6 g; diarrhea score ([2]; Day 1): +; Number of animals with diarrhea ([2]; Day 1, 6 animals): 1; Number of animals tested positive for C difficile toxins A or B in faeces ([2]; Day 1, 6 tested): 0; Number of animals with diarrhea ([2]; Day 2): 2; diarrhea score ([2]; Day 2): ++; Number of animals tested positive for C difficile toxins A or B in faeces ([2]; Day 2, 6 tested): 2; Number of animals with diarrhea ([2]; Day 3): 2; diarrhea score ([2]; Day 3): +++; Number of animals tested positive for C difficile toxins A or B in faeces ([2]; Day 7, 4 tested): 1; Survival at end of treatment period ([2]; day 6, vancomycin 50 mg/Kg once daily): 4 out of 6 |

Source: US20080057047A1, “Use of bacillus amyloliquefaciens PB6 for the prophylaxis or treatment of gastrointestinal and immuno-related diseases” (priority 2005, published 2008)
